Reference: US7432045B2 (priority 2003, dated 2008)
Read-outs that look alike come from different tables or passages of the source. Peptide text beside a SMILES is read from it. * marks the point of attachment. Biotin = O=C1N[C@H]2[C@H](CS[C@H]2CCCCC(=O)*)N1; Ahx = NCCCCCC(=O)O

Columns and labels:
HSV-1 KOS mutant hrR3 [1] = experiment: LacZ+ virus (hrR3) entry assay with pre-adsorbed virus (entry block); format: cell-based
Method: LacZ^+ virus (hrR3) entry assay: Confluent Vero cell cultures in 96-well microtiter plates were switched to Hepes-buffered serum-free DMEM, cooled on ice to 4° C. for 30 min, and infected with hrR3 for 1 hour at 4° C. in 40 μL of medium. Unattached virus was removed by rinsing with ice-cold medium. Treatments with antiviral peptide SEQ ID NO:1, referred to as EB, or a control peptide which comprised the RRKK tetra-peptide (SEQ ID NO:16) attached to a scrambled version of the membrane transiting peptide RRKKLAALPLVLAAPLAVLA (SEQ ID NO:17) (referred to as EBX), or mock-treatments with peptide-free medium were carried out in serum-free DMEM as indicated. Virus entry was initiated by transferring cultures to 37° C. To inactivate any remaining extracellular virus, cultures were rinsed with PBS and exposed to low pH citrate buffer (40 mM citric acid, 10 mM KCl, 135 mM NaCl, pH 3.0, according to Highlander et al., J. Virol. 61:3356 (1987), for 1 min at 23° C. The citrate was rinsed off with PBS and cultures were maintained in serum-supplemented DMEM until they were fixed with 0.5% gluteraldehyde in 5×PBS for 30 min at 23° C., stained for β-galactosidase activity for 1 hour or overnight at 23° C. with X-gal (Fisher Biotech; BP1615-1) in 1×PBS containing […], 1.3 mM K4Fe(CN)6, and 1.3 mM K3Fe(CN)6, and scored for the presence of blue […] cells.
In these studies, the hrR3 virus was pre-adsorbed to cells for 1 hour at 4° C. before ice cold 25 μM EB or EBX were added in serum-free DMEM. After an additional 1 hour at 4° C., cultures were shifted to 37° C. to initiate virus entry. At 15 min intervals following the temperature shift, any virus remaining outside the cells was inactivated by washing the cultures with low pH citrate buffer. Cultures were then rinsed and returned to peptide-free serum-supplemented DMEM until they were fixed and stained for β-galactosidase 8 hours after the temperature shift.
(§1) Two assays were used to assess the ability of the TAT peptides to inhibit infection of Vero cells with the hrR3 virus. In both assays, the virus was preadsorbed to cells at 4° C. and entry was initiated in the presence of peptide by shifting the cultures to a permissive temperature (30-37° C.). One hour later, the peptide was rinsed off. The entry blocking activity was measured in half of the cultures, in which any extracellular virus remaining after the peptide treatment was inactivated with low pH citrate buffer. The rest of the cultures were exposed to PBS instead of citrate buffer and used to measure virus inactivation. Virus inactivation depended on persistent effects of the peptide lasting for a period of eight hours. At the end of that period, all cultures were fixed and infected cells were detected by staining with X-gal.
(§2) Virus (m.o.i.=0.025) was preadsorbed to Vero cells for 1 h at 4° C. before cultures were exposed to TAT-C (FIG. 15A), bTAT-9X (FIG. 15B), or n50,51TAT-C (FIGS. 15C, 15D) for 1 h at 33 (FIGS. 15A, 15B), 31 (FIG. 15C), or 37° C. (FIG. 15D). […] Inhibition of entry was measured in the citrate-treated cultures, in which any remaining external virus was inactivated immediately following exposure to peptide (●). Persistent virus inactivation lasting, at least in part, for the 8 h period following exposure to peptide, was measured in the PBS-treated cultures (◯). The IC50s measured in these experiments are included in Table 5.

HSV-1 KOS mutant hrR3 [2] = experiment: Inactivation of pre-adsorbed virus (virus inactivation); format: cell-based
Method: as §1, §2

in vitro = conditions: African green monkey
HSV-1 KOS mutant hrR3 [3] = conditions: read-out: post-entry effects IC50; peptide added after citrate treatment, 8 h
hrR3 = experiment: Virucidal assay; format: cell-based, HSV-1
Method: […] The treated virus was diluted 200-fold with serum-supplemented DMEM and assayed for infectivity approximately 1 hour later in microtiter wells seeded with Vero cells (3.5×10^4 cells/well) 1 d earlier. Forty or 100 microliter volumes of diluted virus were adsorbed for 1 or 2 h at 37° C. and lacZ^+ cells were scored 8 hours later. In some experiments, aliquots of diluted virus were first dialyzed (Spectra/Por; MWCO 12-14,000) overnight at 4° C. against a 60-fold excess volume of Hepes-buffered serum-supplemented DMEM or forced by syringe through 0.22 μm membranes (Millex-GV; Millipore) before the remaining infectious virus was assayed.

hrR3 virions = experiment: Inactivation of virions in solution; format: cell-based, HSV-1; conditions: 37° C.; read-out: Inactivation of Virions 37° C. IC50
Method: Inactivation of virions: To assess the ability of peptides to inactivate virions, 3-4×10^6 pfu/mL of virus was mixed on ice with peptide in serum-free DMEM and incubated for 1 h at 4 or 37° C. Aliquots (10 μL) were diluted 1000-fold into peptide-free serum-supplemented DMEM at 23° C. and 50 μL aliquots were assayed in triplicate for infectivity in Vero cell cultures (dilution assay). Alternatively, 10 μL aliquots were diluted into 1 mL of ice-cold peptide-free serum-supplemented DMEM and the virus was pelleted as described above (centrifugation assay). Viral pellets were then resuspended in 250 μL serum-supplemented DMEM and 50 μL aliquots were assayed in triplicate for infectivity in Vero cell cultures.
Some of the virus diluted without the addition of NaCl was pelleted immediately (Control), while the rest of the diluted virus was stored at 4° C. and pelleted 19 h later. The virus was pelleted and assayed for infectivity as described in Example 1.

HSV-1 KOS = experiment: Plaque reduction assay; format: cell-based; conditions: presence of serum
Method: Cell culture and virus: The procedures for growing Vero cells and preparing high titer stocks of HSV-1 KOS as described in Grau et al., Invest. Ophthal. and Vis. Sci. 30: 2474 (1989) were utilized. Vero cells were maintained in carbonate-buffered DMEM supplemented with 5% calf serum and 5% fetal bovine serum (regular medium). For some studies, cells were switched to serum-free DMEM buffered with 25 mM HEPES (pH 7.4) and allowed to adapt to that medium for 30 min prior to experimental treatments. Vero cells were seeded into wells (0.28 cm^2) of microtiter plates either at 3.5×10^4 cells/well for use 1 day later (8×10^4 cells/well) or at 1×10^4 cells/well for use 3 days later (2×10^5 cells/well).
Plaque reduction assay: Confluent Vero cell cultures in microtiter plates were infected for 1 hour at 37° C. in 40 μL of medium. Except where indicated, peptide treatments in 40 μL of medium lasted from 1 hour before through 1 hour after infection. At the end of the adsorption period, the cultures were re-fed with 100 μL of regular medium. Plaque formation was scored 2 days later and the number of plaques scored per well was normalized to the number counted in the absence of peptide. Using an ocular micrometer, plaque size (π/2×L×S) was determined by measuring the largest plaque diameter (L) and the diameter at a 90° angle to that (S). The size of each of the first 40 scored plaques was measured except when a plaque included less than 10 rounded cells or touched the side of the well.

HSV-1 KOS mutant hrR3 [4] = conditions: read-out: inhibition of hrR3 infection IC50; serum-free conditions
[5] = 33° C., read-out: Entry Block IC50
[6] = 33° C., read-out: Virus Inactivation IC50 (pre-adsorbed virus)

CC(C)C[C@H](NC(=O)[C@H](CC(=O)O)NC(=O)[C@H](CC(N)=O)NC(=O)[C@@H](NC(=O)[C@@H](NC(=O)[C@H](C)NC(=O)CNC(=O)[C@H](C)NC(=O)[C@H](Cc1ccc(O)cc1)NC(=O)CNC(=O)[C@@H]1CCCN1C(=O)[C@H](CCCNC(=N)N)NC(=O)[C@H](CCCNC(=N)N)NC(=O)[C@H](CCCNC(=N)N)NC(=O)[C@H](CCC(N)=O)NC(=O)[C@H](CCCNC(=N)N)NC(=O)[C@H](CCCNC(=N)N)NC(=O)[C@H](CCCCN)NC(=O)[C@H](CCCCN)NC(=O)[C@H](CCCNC(=N)N)NC(=O)CNC(=O)[C@H](Cc1ccc(O)cc1)NC(=O)CCCCCNC(=O)CCCC[C@@H]1SC[C@@H]2NC(=O)N[C@@H]21)C(C)C)C(C)C)C(=O)O [bTAT-9, b - YGRKKRRQRRR-9] ({Biotin-Ahx}-YGRKKRRQRRRPGYAGAVVNDL-OH) gave an IC50 (HSV-1 KOS mutant hrR3 [1]; [5]) of 2.1 µM, an IC50 (HSV-1 KOS mutant hrR3 [2]; [6]) of 110 µM and an IC50 (in vitro) of about 200 µM. For the same compound, the IC50 (HSV-1 KOS mutant hrR3 [3]) was 210 µM.
In the case of CC(C)C[C@H](NC(=O)CNC(=O)[C@H](CC(N)=O)NC(=O)[C@H](C)NC(=O)[C@H](Cc1ccc(O)cc1)NC(=O)[C@@H](NC(=O)[C@H](CC(=O)O)NC(=O)CNC(=O)[C@@H]1CCCN1C(=O)[C@H](CCCNC(=N)N)NC(=O)[C@H](CCCNC(=N)N)NC(=O)[C@H](CCCNC(=N)N)NC(=O)[C@H](CCC(N)=O)NC(=O)[C@H](CCCNC(=N)N)NC(=O)[C@H](CCCNC(=N)N)NC(=O)[C@H](CCCCN)NC(=O)[C@H](CCCCN)NC(=O)[C@H](CCCNC(=N)N)NC(=O)CNC(=O)[C@H](Cc1ccc(O)cc1)NC(=O)CCCCCNC(=O)CCCC[C@@H]1SC[C@@H]2NC(=O)N[C@@H]21)C(C)C)C(=O)N[C@H](C(=O)N[C@@H](C)C(=O)O)C(C)C [bTAT-9X, b - YGRKKRRQRRR-9x] ({Biotin-Ahx}-YGRKKRRQRRRPGDVYANGLVA-OH), the “extent of inhibition of entry” value (HSV-1 KOS mutant hrR3 [1]; 33° C.) is reported as about 90%, the IC50 (HSV-1 KOS mutant hrR3 [1]; 33° C., read-out: Entry Block 33° C. IC50) is reported as 2 µM and the IC50 (HSV-1 KOS mutant hrR3 [1]; [5]) is reported as 2 µM. It also gave an IC50 (HSV-1 KOS mutant hrR3 [1]; 33° C., read-out: inhibition of entry IC50) of 2 µM, an IC50 (HSV-1 KOS mutant hrR3 [1]; 37° C., read-out: Entry Block 37° C. IC50) of 8.7 µM and an IC50 (HSV-1 KOS mutant hrR3 [1]; read-out: Entry Blocking Activity IC50) of 67 µM. The IC50 (HSV-1 KOS mutant hrR3 [2]; 33° C., read-out: Inactivation of Pre-Adsorbed Virus 33° C. IC50) was 200 µM, the IC50 (HSV-1 KOS mutant hrR3 [2]; [6]) was 200 µM and the IC50 (HSV-1 KOS mutant hrR3 [2]; 33° C., read-out: virus inactivation IC50) was 200 µM. For the same compound, the IC50 (HSV-1 KOS mutant hrR3 [2]; 37° C., read-out: Inactivation of Pre-Adsorbed Virus 37° C. IC50) was 63 µM, the “Virucidal Activity 4° C. IC50” value (hrR3; 4° C.) was “None” and the “Virucidal Activity 37° C. IC50” value (hrR3; 37° C.) was “None”. It also gave an IC50 (hrR3 virions) of over 1200 µM.
With N=C(N)NCCC[C@H](NC(=O)[C@@H](N)CCCNC(=N)N)C(=O)N[C@@H](CCCCN)C(=O)N[C@@H](CCCCN)C(=O)O [R-R-K-K tetramer, R-R-K-K, reference compound] (H-RRKK-OH; N-terminus and C-terminus assumed) the “concentration with no antiviral activity” value (HSV-1 KOS) was over 200 µM and the IC50 (HSV-1 KOS mutant hrR3 [4]) was 1300 µM.
CC(C)C[C@H](NC(=O)CCCCCNC(=O)CCCC[C@@H]1SC[C@@H]2NC(=O)N[C@@H]21)C(=O)N[C@H](C(=O)N[C@@H](CC(C)C)C(=O)N[C@@H](C)C(=O)N[C@@H](C)C(=O)N1CCC[C@H]1C(=O)N[C@@H](CC(C)C)C(=O)N[C@@H](C)C(=O)N[C@H](C(=O)N[C@@H](CC(C)C)C(=O)N[C@@H](C)C(=O)N1CCC[C@H]1C(=O)NCC(=O)N[C@@H](CCCNC(=N)N)C(=O)N[C@@H](CCCCN)C(=O)N[C@@H](CCCCN)C(=O)N[C@@H](CCCNC(=N)N)C(=O)N[C@@H](CCCNC(=N)N)C(=O)N[C@@H](CCC(N)=O)C(=O)N[C@@H](CCCNC(=N)N)C(=O)N[C@@H](CCCNC(=N)N)C(=O)N[C@@H](CCCNC(=N)N)C(=O)N[C@@H](CS)C(N)=O)C(C)C)C(C)C [b12TAT-C] ({Biotin-Ahx}-LVLAAPLAVLAPGRKKRRQRRRC-NH2) showed an IC50 (HSV-1 KOS mutant hrR3 [1]; [5]) of 3.3 µM, an IC50 (HSV-1 KOS mutant hrR3 [2]; [6]) of 11 µM and an IC50 (in vitro) of about 200 µM. The IC50 (HSV-1 KOS mutant hrR3 [3]) was 100 µM.
